This note sets out measurements from ChEMBL document CHEMBL1151381, “Aporphine Alkaloids From Annona acuminata” (1982).

≈ marks a conversion by molar mass, not a printed value.

This assay has as its system KB. Nature of the assay: Cytotoxicity against human KB cells. Type of assay: functional. To be noted: read-out: ED50 (the source's name).
`COc1c(OC)c2c3c(nccc3c1OC)C(=O)c1ccccc1-2` [HOMOMOSCHATOLINE]: the EC50 was greater than 10 µg/mL.
For `O=C1c2ccccc2-c2c3c(cc4ccnc1c24)OCO3` [LIRIODENINE] the value was 3.1 µg/mL (≈ 11.3 µM); for `COc1cc2ccnc3c2c(c1OC)-c1ccccc1C3=O` [LYSICAMINE], greater than 10 µg/mL.
